The subject of test [1] is TSLP production in NHBE cells. As to the kind of experiment: TSLP HTRF assay (TSLP production in poly I:C / IL-4 stimulated NHBE cells). Type of test: cell-based, human. The method, then: For dose response curves determinations, stocks of test compounds at a concentration of 1.33x10^-3 M in DMSO were sequentially diluted at 1:4 dilution steps before further 1/50 dilution in BEBM medium containing 1x ITS and 0.1% BSA. For the highest 4 μM concentration test compounds were resuspended in DMSO at a concentration of 2.5x10^-3 M and diluted 1/25 in BEBM medium containing 1x ITS and 0.1% BSA before adding 1 μl to the wells containing the cells.
All subsequent steps were automated using a Sciclone® G3 workstation (Perkin Elmer) with a Twister™ II robot (Perkin Elmer). […] 1 μl of test compound solution prepared at 25x concentration was added to the wells containing NHBE cells. The plates were then incubated during 90 minutes at 37°C, 5% CO2, 90% humidity before adding poly I:C (Invivogen HMW Tirl-pic-5) and human IL-4 (Peprotech 200–04) stimulus in 4 μl of BEBM medium containing 1x ITS, 0.1% BSA and 0.1% DMSO using a Multidrop™. […] Cells were then incubated for 24h in the presence of test compounds and stimulus at 37°C, 5% CO2 and 90% humidity conditions. After the 24h incubation period the plates were transferred to a CyBi®-Well platform (CyBio AG) to collect 10 μl of the supernatants which were transferred to a new plate. TSLP levels in the supernatant were determined using a homogeneous Time-Resolved Fluorescence (HTRF) assay custom developed by Cisbio. The assay was based in the use of a donor dye (europium cryptate) coupled to a monoclonal anti-TSLP antibody and an acceptor dye (d2) coupled to a second polyclonal anti-TSLP antibody. […] 10 μl of the resulting solution was then used to determine TSLP levels as described above.
The standard curve was built with eight points prepared in ITS/BSA in BEBM medium without supplements, starting at 700 pg/ml and diluted 1:2, with medium alone being zero TSLP. Fitting model corresponded to equation 100 of Excel fit software. Data from the primary phenotypic screen was visualized using Vortex (Dotmatics). […] For compound selection the maximum inhibition of the two individual duplicate values was taken into account. Dose response confirmation was performed at single point in the 2 donors tested. 9 point curves were run starting at 4 μM concentration by doing serial 1:4 dilutions in cells derived from both donors.
(In general: In TR-FRET formats the signal depends on donor and acceptor labels being close together.)

A further test deals with T1, Fer (Homo sapiens, UniProt P16591).
T1 construct: purchased Eurofins Pharma Discovery Services (KinaseProfiler; Cerep BioPrint panel)
Briefly: kinase selectivity panel. The conditions noted are these: read-out: percentage of control activity (POC), Fer. Type of test: biochemical. As to the method: (§1) Kinase selectivity was evaluated at Eurofins Pharma Discovery Services using a selection of 125 representative kinases tested at a concentration of 10 μM in duplicate (S3 Table). IC50 values for selected activities were further characterized at 9 duplicate concentrations. DNA-PK activity was determined at the SelectScreen® Biochemical kinase Profiling Service of Thermo Fisher Scientific.

Another test has as its target T2, Hck (Homo sapiens, UniProt P08631).
T2 construct: Eurofins Pharma Discovery Services (contract assay service)
As to the kind of experiment: kinase selectivity panel. Type of test: biochemical. The conditions noted are these: for remaining activity at 10 µM: read-out: percentage of control activity (POC), Hck. The method, then:
as §1

In another test the target is T3, IKKε (Homo sapiens, UniProt Q14164).
T3 construct: purchased Eurofins Pharma Discovery Services (KinaseProfiler; Cerep BioPrint panel)
T3 sequence (Q14164 1-716): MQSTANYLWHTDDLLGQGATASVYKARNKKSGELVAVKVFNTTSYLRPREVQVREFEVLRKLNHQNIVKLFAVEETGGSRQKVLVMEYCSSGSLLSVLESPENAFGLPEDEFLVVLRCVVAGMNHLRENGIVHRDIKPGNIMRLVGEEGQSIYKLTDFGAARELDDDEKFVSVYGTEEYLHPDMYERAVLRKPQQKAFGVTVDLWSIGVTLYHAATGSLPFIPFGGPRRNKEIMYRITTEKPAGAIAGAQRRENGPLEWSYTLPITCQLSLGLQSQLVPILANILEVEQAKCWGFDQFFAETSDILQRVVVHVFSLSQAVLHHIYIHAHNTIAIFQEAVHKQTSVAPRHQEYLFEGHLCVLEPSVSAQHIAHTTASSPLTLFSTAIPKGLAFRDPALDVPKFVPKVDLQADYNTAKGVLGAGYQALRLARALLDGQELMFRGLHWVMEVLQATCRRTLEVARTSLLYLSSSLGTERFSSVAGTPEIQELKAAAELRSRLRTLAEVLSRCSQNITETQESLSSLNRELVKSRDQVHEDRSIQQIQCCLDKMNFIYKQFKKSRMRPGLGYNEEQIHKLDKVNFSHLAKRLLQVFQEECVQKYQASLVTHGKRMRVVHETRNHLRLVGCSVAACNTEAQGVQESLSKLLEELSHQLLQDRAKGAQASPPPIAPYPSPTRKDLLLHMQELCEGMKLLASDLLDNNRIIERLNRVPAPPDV
As to the kind of experiment: kinase selectivity panel. Type of test: biochemical. The conditions noted are these: read-out: percentage of control activity (POC), IKKε. The method, then: as §1

Another test addresses T4, PI3K (p120g) (Homo sapiens, UniProt P48736).
T4 construct: Eurofins Pharma Discovery Services (contract assay service)
As to the kind of experiment: kinase selectivity panel. The class given is biochemical. The conditions noted are these: for remaining activity at 10 µM: read-out: percentage of control activity (POC), PI3K (p120g). As to the method:
as §1

For another test, the target named is T5, SAPK4 (Homo sapiens, UniProt O15264).
T5 construct: purchased Eurofins Pharma Discovery Services (KinaseProfiler; Cerep BioPrint panel)
T5 sequence (O15264 1-365): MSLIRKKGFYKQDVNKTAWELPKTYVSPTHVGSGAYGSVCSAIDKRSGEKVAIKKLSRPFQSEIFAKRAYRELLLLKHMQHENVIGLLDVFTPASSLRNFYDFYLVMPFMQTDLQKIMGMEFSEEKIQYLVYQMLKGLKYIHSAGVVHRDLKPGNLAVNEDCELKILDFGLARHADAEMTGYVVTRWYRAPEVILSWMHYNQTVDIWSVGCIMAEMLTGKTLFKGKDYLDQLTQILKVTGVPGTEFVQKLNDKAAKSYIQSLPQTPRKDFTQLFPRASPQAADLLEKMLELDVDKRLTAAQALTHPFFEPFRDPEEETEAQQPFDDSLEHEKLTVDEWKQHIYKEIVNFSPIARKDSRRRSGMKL
Briefly: kinase selectivity panel. Type of test: biochemical. The conditions noted are these: read-out: percentage of control activity (POC), SAPK4. The method, then:
as §1

Another test has as its target T6, eEF-2K (Homo sapiens, UniProt O00418).
T6 construct: purchased Eurofins Pharma Discovery Services (KinaseProfiler; Cerep BioPrint panel)
As to the kind of experiment: kinase selectivity panel. The conditions noted are these: read-out: percentage of control activity (POC), eEF-2K. The class given is biochemical. The method, then: as §1

Test [2] relates to Production of TNFα in THP-1 cells. Briefly: p38-dependent TNF production in THP-1 cells. The class given is cell-based.
[3] abbreviates: Homo sapiens, NHBE, 24 h, NHBE cells donor #1, poly I:C / IL-4, 24h, geometric mean, read-out: Inhibition of TSLP protein production (IC50, μM) (95% CI).
The mark [4] stands for this setting: individual values, donor #1, read-out: Inhibition of TSLP production in NHBE (IC50).
Setting [5] is: Homo sapiens, THP-1, geometric mean, read-out: Activity in reference cell based assay (IC50, μM) (95% CI) Production of TNFα in THP-1 cells.
[6] abbreviates: Homo sapiens, THP-1, individual values, read-out: Cellular activity (IC50, mM) TNFa production in THP-1.

Each structure is given as a SMILES string. Where “and” joins values, the source holds several entries; their conditions need not be identical. Equal entries are not always repeated. Where two headings read alike, the source gives them in different places.

T1 sequence (P16591 whole entry): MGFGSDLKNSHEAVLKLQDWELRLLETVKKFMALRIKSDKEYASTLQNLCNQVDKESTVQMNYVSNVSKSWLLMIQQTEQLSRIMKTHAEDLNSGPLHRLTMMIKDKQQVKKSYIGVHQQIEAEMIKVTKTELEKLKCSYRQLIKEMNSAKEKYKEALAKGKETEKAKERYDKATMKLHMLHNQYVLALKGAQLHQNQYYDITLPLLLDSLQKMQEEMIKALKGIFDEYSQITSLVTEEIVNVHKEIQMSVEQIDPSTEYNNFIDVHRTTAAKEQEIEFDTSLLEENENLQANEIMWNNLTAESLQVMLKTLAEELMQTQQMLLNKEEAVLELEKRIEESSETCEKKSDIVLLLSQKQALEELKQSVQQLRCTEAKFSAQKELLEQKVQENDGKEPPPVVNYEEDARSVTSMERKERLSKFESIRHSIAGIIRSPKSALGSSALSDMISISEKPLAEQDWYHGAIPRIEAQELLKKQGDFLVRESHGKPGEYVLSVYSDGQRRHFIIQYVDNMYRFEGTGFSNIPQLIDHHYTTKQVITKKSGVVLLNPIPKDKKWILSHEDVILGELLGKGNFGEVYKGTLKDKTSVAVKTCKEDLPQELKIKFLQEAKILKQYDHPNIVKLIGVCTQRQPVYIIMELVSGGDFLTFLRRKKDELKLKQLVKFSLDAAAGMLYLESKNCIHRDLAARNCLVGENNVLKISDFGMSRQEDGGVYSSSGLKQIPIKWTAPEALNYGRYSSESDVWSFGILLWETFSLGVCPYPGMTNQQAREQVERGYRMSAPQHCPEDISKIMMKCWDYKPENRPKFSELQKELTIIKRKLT
T4 sequence (P48736 whole entry): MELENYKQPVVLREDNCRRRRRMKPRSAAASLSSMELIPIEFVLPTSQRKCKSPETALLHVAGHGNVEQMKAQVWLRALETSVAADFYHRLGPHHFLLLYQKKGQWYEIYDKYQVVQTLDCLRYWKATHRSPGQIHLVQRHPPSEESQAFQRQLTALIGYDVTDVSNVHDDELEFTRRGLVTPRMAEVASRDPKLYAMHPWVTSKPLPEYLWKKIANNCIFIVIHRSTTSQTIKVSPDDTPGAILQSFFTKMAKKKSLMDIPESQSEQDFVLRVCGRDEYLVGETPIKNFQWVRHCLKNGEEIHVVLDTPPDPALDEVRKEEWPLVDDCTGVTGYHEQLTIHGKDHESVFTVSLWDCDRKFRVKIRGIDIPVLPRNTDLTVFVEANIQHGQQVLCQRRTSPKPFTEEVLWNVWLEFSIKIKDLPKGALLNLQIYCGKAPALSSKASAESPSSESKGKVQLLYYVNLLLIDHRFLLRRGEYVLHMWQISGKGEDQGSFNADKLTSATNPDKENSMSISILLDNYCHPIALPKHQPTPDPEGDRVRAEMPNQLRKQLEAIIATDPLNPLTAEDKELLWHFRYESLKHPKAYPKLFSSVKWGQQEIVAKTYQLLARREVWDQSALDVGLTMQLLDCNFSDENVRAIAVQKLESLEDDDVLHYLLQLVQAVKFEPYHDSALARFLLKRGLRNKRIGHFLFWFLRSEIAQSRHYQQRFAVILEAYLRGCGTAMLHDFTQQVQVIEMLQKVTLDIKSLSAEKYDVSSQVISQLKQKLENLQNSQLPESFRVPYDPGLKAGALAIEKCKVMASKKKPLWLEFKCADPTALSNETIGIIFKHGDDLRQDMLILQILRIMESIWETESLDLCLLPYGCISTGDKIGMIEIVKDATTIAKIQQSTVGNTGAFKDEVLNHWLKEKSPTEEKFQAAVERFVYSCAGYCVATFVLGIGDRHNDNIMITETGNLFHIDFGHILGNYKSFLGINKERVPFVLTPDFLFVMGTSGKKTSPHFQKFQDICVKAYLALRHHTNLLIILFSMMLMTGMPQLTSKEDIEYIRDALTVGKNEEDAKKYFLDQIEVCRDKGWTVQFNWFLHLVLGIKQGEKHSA
T2 sequence (P08631 whole entry, species assumed): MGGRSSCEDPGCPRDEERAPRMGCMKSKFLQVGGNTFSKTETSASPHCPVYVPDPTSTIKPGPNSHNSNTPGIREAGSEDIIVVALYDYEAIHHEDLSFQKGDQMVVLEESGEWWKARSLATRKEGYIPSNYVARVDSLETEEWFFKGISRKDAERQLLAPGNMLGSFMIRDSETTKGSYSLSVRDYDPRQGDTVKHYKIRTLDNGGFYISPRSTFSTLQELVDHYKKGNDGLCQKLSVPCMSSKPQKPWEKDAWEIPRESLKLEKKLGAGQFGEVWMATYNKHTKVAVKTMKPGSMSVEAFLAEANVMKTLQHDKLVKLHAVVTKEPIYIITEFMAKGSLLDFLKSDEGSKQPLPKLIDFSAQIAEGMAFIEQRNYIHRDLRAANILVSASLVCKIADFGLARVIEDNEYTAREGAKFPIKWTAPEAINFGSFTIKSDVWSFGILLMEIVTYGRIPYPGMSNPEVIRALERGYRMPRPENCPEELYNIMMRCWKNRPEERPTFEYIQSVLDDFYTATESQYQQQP

As for `Cn1cc(-c2cccc(-c3nc(C(=O)NC4C5CC6CC4CC(O)(C6)C5)c(N)nc3N)c2)cn1` (stereo not shown) [compound 4], the IC50 (as a rule, the concentration at which inhibition is half-maximal) in test [1] (setting [3]) was 0.075 µM; in test [1] (setting [4]), 0.052 µM and 0.037 µM and 0.178 µM and 0.1 µM and 0.036 µM and 0.147 µM; on Hck (biochemical dose response, duplicate, read-out: Inhibition of indicated activity (IC50, μM): Hck), 3.58 µM; at PI3K (p120g) (biochemical dose response, duplicate, read-out: Inhibition of indicated activity (IC50, μM): PI3K (p120γ)), 4.78 µM. In addition, the remaining activity at 10 µM at Fer was 99%; on Hck (10 μM) it was 47%; on IKKε, 96%; on PI3K (p120g) (10 μM) it was 33%; at SAPK4 it was 88%; at eEF-2K, 115%. The inhibition (commonly the relative decrease from the control value, in per cent) at 10 µM at Hck (10 μM) was found to be 53%; on PI3K (p120g) (10 μM, read-out: inhibition of PI3K (p120γ)), 67%.
Consider `COc1c(NC(=O)c2ccc(C)c(-c3nnc4c(NCC(C)(C)C)nccn34)c2)cc(C(C)(C)C)cc1NS(C)(=O)=O` [compound 7, reference compound], for which the IC50 in test [1] (setting [3]) is 0.738 µM; in test [1] (setting [4]), 0.486 µM and 0.72 µM and 1.15 µM; in test [2] (setting [5]), 0.002 µM; in test [2] (setting [6]) it was 0.002 µM. For the same compound, the remaining activity at 10 µM stood at 105% at Fer; 84% at Hck (10 μM); 100% on IKKε; 86% on PI3K (p120g) (10 μM); 81% on SAPK4; 128% at eEF-2K.
With `Cc1ccc(C(=O)NCC2CC2)cc1-c1ccc2c(c1)NC(=O)C21CCCC1` [compound 3], the IC50 is 0.172 µM in test [1] (setting [3]); 0.186 µM in test [1] (Homo sapiens, NHBE, individual values, donor #1, read-out: Inhibition of TSLP production in NHBE (IC50)); 0.211 µM and 0.131 µM in test [1] (setting [4]); 0.001 µM in test [2] (setting [5]); 0.00242 µM in test [2] (setting [6]); 0.00132 µM in test [2] (individual values, read-out: Cellular activity (IC50, mM) TNFa production in THP-1). Besides, the remaining activity at 10 µM at Fer came to 102%; on Hck (10 μM), 87%; on IKKε, 102%; on PI3K (p120g) (10 μM), 85%; at SAPK4, 94%; on eEF-2K it was 111%.
In the case of `CC(C)(C)N1CCC(c2cc(-c3ccc(F)cc3Cl)c3cc[n+]([O-])c(-c4c(Cl)cccc4Cl)c3n2)CC1` [compound 2], the IC50 in test [1] (setting [3]) is 0.022 µM; in test [1] (setting [4]), 0.023 µM and 0.009 µM and 0.055 µM; in test [2] (setting [5]), 0.0004 µM; in test [2] (setting [6]), 0.00045 µM. Also, the remaining activity at 10 µM on Fer came to 109%; on Hck (10 μM), 84%; at IKKε it was 101%; at PI3K (p120g) (10 μM), 92%; at SAPK4, 96%; at eEF-2K, 115%.
As for `CS(=O)(=O)N1CCN(c2ccc(Nc3ncc(C(N)=O)c(NC4CC4)n3)cc2)CC1` [compound 5], the IC50 in test [1] (setting [3]) was 0.043 µM; in test [1] (setting [4]), 0.026 µM and 0.048 µM and 0.028 µM and 0.054 µM and 0.083 µM. Also, the remaining activity at 10 µM at Fer was found to be 14%; on Hck (10 μM) it was 7%; at IKKε, 0%; on PI3K (p120g) (10 μM), 86%; on SAPK4, 32%; at eEF-2K it was 97%.

The record behind these values is publication PMC5761851, “Application of a phenotypic drug discovery strategy to identify biological and chemical starting points for inhibition of TSLP production in lung epithelial cells” (PLoS ONE, 2018).
